According to patent publication US5013837A, “3-Arylcarbonyl-1H-indole-containing compounds” (Sterling Drug Inc., priority 1990, dated 1991):

Key:
[1] = tested on: mouse vasa deferentia (MVD) preparation; experiment: mouse vas deferens test (MVD); assay type: cell-based; conditions: inhibition of contractions in vitro, active at IC50 of 5.0 μM or less
Description: Med. Assoc. 217, 1392 (1971)]. […] Opth. 7, 921-923 (1975); Green and Pederson, Effect of delta-9 Tetrahydrocannabinol on Aqueous Dynamics and Ciliary Body Permeability in the Rabbit Eye., Exptl. Eye Research 15, 499-507 (1973); Colasanti, Craig and Allara, Intraocular Pressure, Ocular Toxicity and Neurotoxicity after Administration of Cannabinol or Cannibigerol, Exptl. Eye Research 39, 252-259 (1984)]. Similarly, synthetic cannabinoids also reduce intraocular pressure [Green, Symunds, Oliver and Elijah, Intraocular Pressure Following Systemic Administration of Cannabinoids, Curr Eye Research 2, 247-253 (1982); Tiedeman, Shields, Weber, Crow, Coccetto, Harris and Howes, Ophthalmology, 88, 270-277 (1981); Colasanti et al., supra]. Cannabinoid receptor binding sites can be defined as those to which radio-labelled 4-(1,1-dimethylheptyl)-2,3'-dihydroxy-6'alpha-(3-hydroxypropyl)-1',2',3',4',5',6'-hexahydrobiphenyl (CP 55940) binds in a specific and saturable manner, and the binding sites are heterogeneously distributed in the brain [Devane, Dysarz, Johnson, Melvin and Howlett, Determination and Characterization of a Cannabinoid Receptor in Rat Brain, Molecular Pharm. 34, 605-613 (1988)]. Natural and synthetic cannabinoids and representative examples of the compounds of the present invention bind to CP 55940 binding sites. […]

[2] = topical application or systemic injection; cited from earlier work

SMILES	IC50 [1] [µM]	effect on intraocular pressure [2]
O=C(c1ccc2ccccc2c1)c1cn(CCN2CCOCC2)c2ccccc12 [Example 1S]	0.05	
CCCCCc1cc(O)c2c(c1)OC(C)(C)[C@@H]1CCC(C)=C[C@@H]21 [delta-9 tetrahydrocannabinol]		reduces intraocular pressure
